How the values were obtained:
[1] = system: mouse sperm; assay: Ability of mouse sperm to fertilize oocytes after incubation in capacitation medium (in vitro fertilization, 2-cell embryos); format: cell-based; conditions: vs control; for percentage of 2-cell embryos vs mature MII oocytes at 24 h post fertilization: 12 hours incubation prior fertilization; for percentage of 2-cell embryos vs mature oocytes at 48 h post fertilization: 5 μM clofilium in M16-BSA medium
Description: Mouse sperm was obtained by manual trituration of caudae epididymides from male and were allowed to swim in M2 medium (from Sigma) for 10 minutes. The M2 medium composition in g/L is as follows: CaCl2 0.25; MgSO4 (anhydrous) 0.1649; KCl 0.35635; K2HPO4 0.162; NaHCO3 0.35; NaCl 5.53193; Albumin, Bovine Fraction V 4.0; D-Glucose 1.0; HEPES (for 4-(2-HydroxyEthyl)-1-Piperazine EthaneSulfonic acid)×Na 5.42726; Pyruvic Acid×Na 0.0363; DL-Lactic Acid×Na 2.95). Sperm were then capacitated in M16 medium (from Sigma) with 2% fatty acid-free BSA (for Bovine Serum Albumin) (named “M16-BSA medium”) at 37° C. in a 5% v/v CO2 incubator for different times as specified. M16 medium is a commercial and commonly used medium for in vitro fertilization and culture of preimplantation stage embryos. Oocytes were collected from mature OF1 females, synchronized with 5 units of pregnant mare serum gonadotrophin (PMSG) and 5 units of human chorionic gonadotrophin (HCG). Cumulus were harvested directly from the ampulla and sperm were injected into the M16 droplets containing the cumulus. 1. The first test related to the ability of mouse sperm to fertilize oocytes when incubated prior fertilization in a capacitation medium containing clofilium with regard to a control medium, which is the same capacitation medium but without clofilium. The capacitation medium was M16-BSA medium. The control medium was the M16-BSA medium containing the sperm. It was compared to the same medium further including clofilium at a concentration of 5 μM (in the M16-BSA medium containing the sperm). Sperm was incubated in M16-BSA medium with or without clofilium and then added to M16 droplets containing the cumulus comprising the oocytes. Two-cell embryos were counted at 48 h post insemination (n=3). The number of oocytes reaching the two-cell stage were counted at 48 hours after fertilization. Two different concentrations of clofilium were tested: 0.2 μM of clofilium and 5 μM of clofilium (in the M16-BSA medium containing the sperm). The sperm incubation time prior fertilization was 12 hours. The test related to the ability of mouse sperm to fertilize oocytes, sperm being incubated prior fertilization in a medium containing quinidine with regard to a control medium, without quinidine. The control medium was the M16-BSA medium containing the sperm (“control”). It was compared to the same medium further including quinidine, at various concentrations 5 μM quinidine (“5 μM quinidine”), 10 μM quinidine (“10 μM quinidine”), 25 μM quinidine (“25 μM quinidine”) and 100 μM quinidine (“100 μM quinidine”).

[2] = system: bovine sperm; assay: Ability of frozen-thawed bovine capacitated sperm to fertilize oocytes after 24 h incubation in sp-TALP (2-cell embryos, blastocysts); format: cell-based; conditions: 0.2 μM clofilium in sp-TALP 24 h prior fertilization, vs control 24 h
Description: Bovine sperm was obtained by ejaculation. Ejaculate was diluted 1:1 in Optixcell. After 10 minutes of 34° C. incubation, semen was then diluted to a final concentration of 57 million of spermatozoa/mL in Optixcell. Optixcell is a TRIS citrate buffer containing liposomes extruded from egg yolk lecithins, glycerol and antibiotics described by CEE (Directive 88/407/CEE). Diluted semen was slowly cooled down to 4° C. (3 to 4 h equilibration in a tempered water-bath), 0.25 mL straws were filled and then frozen in a controlled rate freezer at a cooling rate of 5° C./min from 4° C. to −10° C., 40° C./min from −10° C. to −110° C., 15° C./min from −110° C. to […]. Straws were then stored in liquid nitrogen until in vitro fertilization. Straws were thawed in a water-bath at 37° C. for 45 s. Each straw was wiped with 70° ethanol before being opened. […] Sperm concentration was measured and 750 000 sperm cells are injected into a fertilization droplet (500 μL) containing oocytes bathing in fertilization medium. […] Sperm (1.5 M/mL) and cumulus oocyte complexes (COCs) co-culture were performed at 38.5° C. under gaseous atmosphere of 5% v/v CO2 and saturated humidity for 48 h and then fertilization outcome was assessed. […] Cleavage rate assessed at 48 h and blastocyst rate at day 9 post-fertilization. […]

CCCCCCC[N+](CC)(CC)CCCCc1ccc(Cl)cc1 [clofilium]
percentage of 2-cell embryos vs mature MII oocytes at 24 h post fertilization ([1]; 0.2 μM clofilium): improves the mouse in vitro fertilization outcome
percentage of 2-cell embryos vs mature oocytes at 48 h post fertilization ([1]; 3 h incubation period prior fertilization): not significantly different than that of control
percentage of 2-cell embryos vs mature oocytes at 48 h post fertilization ([1]; long incubation periods (>3 hours) prior fertilization): higher number of 2-cell stages than what was observed with the control
percentage of 2-cell embryos vs mature oocytes at 48 h post fertilization ([1]; short incubation periods (<3 hours) prior fertilization): positive effect
percentage of 2-cell embryos vs mature MII oocytes at 24 h post fertilization ([1]; 5 μM clofilium): potent
percentage of blastocysts vs matured oocytes 9 days after fertilization [2]: improves the yield of bovine blastocysts
